From patent US20240092758A1, “IMIDAZOLO INDAZOLE COMPOUNDS AS JAK INHIBITORS” (Theravance Biopharma R&D IP, LLC, priority 2021, published 2024) come the findings set out here.

The target of one assay is TYK2 (Homo sapiens (Human), UniProt P29597). Briefly: Biochemical JAK kinase assay (LanthaScreen), Tyk2. The note with it: read-out: Tyk2 pKi (converted). The method in brief:
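LanthaScreen format: phospho-STAT1 (pTyr701) detected with 2 nM Tb antibody after 10 mM EDTA quench. Kinase step used Km-level ATP and 200 nM STAT1 peptide, 1 h at ambient after 1 h pre-incubation. Inhibition fitted to IC50, reported as pKi.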

In assay [1] the test system is IL-13 induced pSTAT6 in lung tissue. Put plainly: Murine model of IL-13 induced pSTAT6 induction in lung tissue. The note with it: balb/c mice, test compound 0.5 mg/mL, 50 μL by oral aspiration, IL-13 challenge eight hours later, lungs collected one hour after. The format is in vivo, mouse. As for the experimental part: IL-13 binds to cell surface receptors activating members of the Janus family of kinases (JAK) which then phosphorylate STAT6 and subsequently activate further transcription pathways. In the described model, a dose of IL-13 was delivered locally into the lungs of mice to induce the phosphorylation of STAT6 (pSTAT6) which is then measured as the endpoint.
Adult balb/c mice from Harlan were used in the assay. On the day of study, animals were lightly anesthetized with isoflurane and administered either vehicle or test compound (0.5 mg/mL, […] total volume over several breaths) via oral aspiration.
Animals were placed in lateral recumbency post dose and monitored for full recovery from anesthesia before being returned to their home cage. Eight hours later, animals were once again briefly anesthetized and challenged with either vehicle or IL-13 (0.03 μg total dose delivered, 50 μL total volume) via oral aspiration before being monitored for recovery from anesthesia and returned to their home cage. One hour after vehicle or IL-13 administration, lungs were collected for both pSTAT6 detection using an AlphaLISA Immunoassay (PerkinElmer) and analyzed for total drug concentration.
Selected compounds of the present disclosure were tested in the assay. Activity in the model is evidenced by a decrease in the level of pSTAT6 present in the lungs of treated animals at 9 hours compared to the vehicle treated, IL-13 challenged control animals. The difference between the control animals which were vehicle-treated, IL-13 challenged and the control animals which were vehicle-treated, vehicle challenged dictated the 0% and 100% inhibitory effect, respectively, in any given experiment.

Each structure is given as a SMILES string.

TYK2, sequence (P29597 whole entry): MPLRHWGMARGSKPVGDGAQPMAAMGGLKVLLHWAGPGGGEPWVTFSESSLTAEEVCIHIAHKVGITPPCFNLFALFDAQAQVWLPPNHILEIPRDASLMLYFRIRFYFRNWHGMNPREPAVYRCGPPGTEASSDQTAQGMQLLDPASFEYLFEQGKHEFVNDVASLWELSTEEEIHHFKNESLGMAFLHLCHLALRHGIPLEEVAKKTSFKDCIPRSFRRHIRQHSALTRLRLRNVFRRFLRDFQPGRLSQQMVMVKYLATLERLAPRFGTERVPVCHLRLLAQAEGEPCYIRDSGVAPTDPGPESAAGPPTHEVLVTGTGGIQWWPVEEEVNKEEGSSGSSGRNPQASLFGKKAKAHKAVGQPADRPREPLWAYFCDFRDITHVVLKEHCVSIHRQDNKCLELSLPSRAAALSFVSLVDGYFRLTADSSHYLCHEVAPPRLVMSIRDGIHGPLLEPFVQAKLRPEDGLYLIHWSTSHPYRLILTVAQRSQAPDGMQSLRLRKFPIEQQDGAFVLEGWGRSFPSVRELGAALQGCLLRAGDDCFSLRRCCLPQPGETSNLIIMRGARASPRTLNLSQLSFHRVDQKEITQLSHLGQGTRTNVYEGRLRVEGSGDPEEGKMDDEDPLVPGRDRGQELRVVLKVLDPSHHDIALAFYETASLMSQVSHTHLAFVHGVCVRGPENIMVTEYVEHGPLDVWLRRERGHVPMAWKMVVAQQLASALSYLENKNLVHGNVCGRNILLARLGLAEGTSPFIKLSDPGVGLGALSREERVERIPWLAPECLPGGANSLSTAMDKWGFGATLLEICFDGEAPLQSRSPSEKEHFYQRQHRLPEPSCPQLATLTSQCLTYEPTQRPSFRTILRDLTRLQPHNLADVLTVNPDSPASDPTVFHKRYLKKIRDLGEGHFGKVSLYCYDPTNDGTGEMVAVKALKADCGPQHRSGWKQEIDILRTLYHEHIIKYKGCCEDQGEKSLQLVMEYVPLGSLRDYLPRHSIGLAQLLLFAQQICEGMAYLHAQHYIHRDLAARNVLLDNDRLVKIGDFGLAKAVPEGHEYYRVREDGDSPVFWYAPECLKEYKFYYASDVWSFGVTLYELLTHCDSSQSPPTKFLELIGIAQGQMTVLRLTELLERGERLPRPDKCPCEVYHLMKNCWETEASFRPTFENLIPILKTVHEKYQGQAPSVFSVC

For `CCc1cc(O)ccc1-c1ccc2c(-c3nc(C4=CCNCC4)c[nH]3)n[nH]c2c1F` [Compound 2, 3-ethyl-4-(7-fluoro-3-(4-(1,2,3,6-tetrahydropyridin-4-yl)-1H-imidazol-2-yl)-1H-indazol-6-yl)phenol], on TYK2, the Ki was 1 to 10 nM. Besides, the “% pSTAT6 inhibition at 8 hours” value in assay [1] was “A (A represents between 80% and 100% inhibition)”.
In the case of `CCc1cc(O)ccc1-c1ccc2c(-c3nc(C4=CCNC4)c[nH]3)n[nH]c2c1F` [Compound 1, 4-(3-(4-(2,5-dihydro-1H-pyrrol-3-yl)-1H-imidazol-2-yl)-7-fluoro-1H-indazol-6-yl)-3-ethylphenol], the Ki on TYK2 is 1 to 10 nM. Further, the “% pSTAT6 inhibition at 8 hours” value in assay [1] is “A (A represents between 80% and 100% inhibition)”.
As for `CCc1cc(O)ccc1-c1ccc2c(-c3nc(C4=CCNCC4)c[nH]3)n[nH]c2c1` [Compound 3, 3-ethyl-4-(3-(4-(1,2,3,6-tetrahydropyridin-4-yl)-1H-imidazol-2-yl)-1H-indazol-6-yl)phenol], the Ki at TYK2 was 0.1 to 1 nM. Also, the “% pSTAT6 inhibition at 8 hours” value in assay [1] is “A (A represents between 80% and 100% inhibition)”.
